Laboratory results reported in US20210043958A1, “AQUEOUS COMPOSITION AS ELECTROLYTE COMPRISING IONIC LIQUIDS OR LITHIUM SALTS” (KIST EUROPE FORSCHUNGSGESELLSCHAFT MBH, priority 2018, published 2021).
Values after ≈ are worked out from the molar mass of the structure shown. Blank lines part the entries; values can stand above or below the compound they belong to.

What was measured:
[1] = Solubility of organic compounds in supporting electrolyte at room temperature; assay type: physicochemical; conditions: for solubility: thermodynamic from solid
Excerpt: The last recorded amount was recognized as the solubility of the organics.

[2] = Cyclic voltammetry in three-electrode cell (glassy carbon / Pt foil / Ag wire); assay type: physicochemical
Excerpt: FIGS. 2a and 2b compare cyclic voltammetry curves of 0.1 M 2-methoxyhydroquinone in pure water and other aqueous ionic liquid, aqueous lithium salt (molality: 10 m), with and without the addition of 1 M HCl. Potential sweep rate: 50 mV s^−1. Working electrode: glassy carbon; Counter electrode: Pt foil; Reference electrode: Ag wire.
FIG. 5a depicts the chemical structure of 2-[(2,5-dihydroxyphenyl)sulfanyl]ethan-1-aminium chloride. FIGS. 5b and 5c show the cyclic voltammetry curves of 0.1 M 2-[(2,5-dihydroxyphenyl) sulfanyl]ethan-1-amonium chloride in pure water and in 1 M HCl. Potential sweep rate: 20 mV s^−1. Working electrode: glassy carbon; Counter electrode: Pt foil; Reference electrode: Ag wire.
FIGS. 6a and 6b compare the cyclic voltammetry curves of 0.1 M 2-[(2,5-dihydroxyphenyl) sulfanyl]ethan-1-amonium chloride in concentrated LiTFSI and BMImCl without and with the addition of 1 M HCl. Potential sweep rate: 20 mV s^−1. Working electrode: glassy carbon; Counter electrode: Pt foil; Reference electrode: Ag wire.
CV measurements were performed in a three-electrode cell consisting of a glassy carbon rod working electrode, a platinum foil counter electrode and a silver wire quasi-reference electrode. CV measurements of 2-methoxyhydroquinone in water (FIG. 2a) and different aqueous ionic liquids and salt (FIG. 2b) were performed.
For the CV measurement in water, KCl was added as supporting salt. […] The average redox potential in water is 0.27 V vs. Ag but with large peak separation of 0.64 V (FIG. 2a).

[3] = 10 m BMImCl-H2O, aqueous with cosolvent or surfactant or cyclodextrin, 10 m BMImCl-H2O, a: without additive
[4] = 10 m LiTFSI-H2O, aqueous with cosolvent or surfactant or cyclodextrin, 10 m LiTFSI-H2O, a: without additive
[5] = 10 m LiTFSI-H2O, aqueous with cosolvent or surfactant or cyclodextrin, LiTFSI—H2O (10 m), neutral, no additive
[6] = 10 m TBACl-H2O, aqueous with cosolvent or surfactant or cyclodextrin, 10 m TBACl-H2O, a: without additive
[7] = water, H2O, a: without additive
[8] = 0.1 M in BMImCl—H2O, 20 mV s^−1
[9] = 0.1 M in LiTFSI—H2O, 20 mV s^−1
[10] = 10 m BMImCl-H2O, aqueous with cosolvent or surfactant or cyclodextrin, BMImCl—H2O (10 m / concentrated), neutral, no additive
[11] = 0.1 M in 10 m BMImCl—H2O, 50 mV s^−1
[12] = 0.1 M in 10 m LiTFSI—H2O, 50 mV s^−1
[13] = 0.1 M in 10 m TBACl—H2O, 50 mV s^−1
[14] = 0.1 M in water, KCl supporting salt, 50 mV s^−1
[15] = BMImCl—H2O, acidic conditions (1 M HCl)
[16] = LiTFSI—H2O, acidic conditions (1 M HCl)
[17] = TBACl—H2O, acidic conditions (1 M HCl)
[18] = water, acidic conditions (1 M HCl)

SMILES: Cl.NCCSc1cc(O)ccc1O [2-[(2,5-dihydroxyphenyl)sulfanyl]ethan-1-aminium chloride]
- average oxidation and reduction potential ([2]; 0.1 M in BMImCl—H2O with addition of HCl (1 M), 20 mV s^−1): 0.61 V
- average oxidation and reduction potential [2, 8]: 0.50 V vs. Ag
- peak separation [2, 8]: 0.61 V
- reduction of peak separation on addition of HCl ([2]; 0.1 M in BMImCl—H2O, with vs. without HCl (1 M)): 0.07 V
- oxidation peak [2, 9]: 0.70 V vs. Ag
- reduction peak [2, 9]: 0.08 V vs. Ag
- redox reversibility ([2]; 0.1 M in pure water and in 1 M HCl, 20 mV s^−1): poor redox reversibility
- stability and reversibility ([2]; in aqueous ionic liquids or lithium salt): excellent stability and reversibility
- chemical and electrochemical stability ([2]; in water): chemically and electrochemically instable
- solubility [1, 10]: 1200 mM
- solubility ([1]; acidic BMImCl-H2O, aqueous with cosolvent or surfactant or cyclodextrin, acidic BMImCl—H2O): 900 mM
- solubility ([1]; pure water): 2000 mM

SMILES: COc1cc(O)ccc1O [2-methoxyhydroquinone]
- average redox potential [2, 11]: 0.51 V vs. Ag
- peak separation [2, 11]: 0.53 V
- average redox potential [2, 12]: 0.38 V vs. Ag
- peak separation [2, 12]: 0.48 V
- average redox potential [2, 13]: 0.54 V vs. Ag
- polarization (peak separation) [2, 13]: 0.87 V
- average redox potential [2, 14]: 0.27 V vs. Ag
- peak separation [2, 14]: 0.64 V
- peak separation ([2]; 10 m BMImCl—H2O with 1 M H3PO4): 0.42 V
- average redox potential ([2]; 10 m BMImCl—H2O with H3PO4 from 1 M to 3 M): 0.50 V vs. Ag
- peak separation [2, 15]: 0.30 V
- redox potential [2, 15]: 0.58 V vs. Ag
- peak separation [2, 16]: 0.38 V
- redox potential [2, 16]: 0.55 V vs. Ag
- peak separation [2, 17]: 0.54 V
- redox potential [2, 17]: 0.58 V vs. Ag
- peak separation [2, 18]: 0.40 V
- redox potential [2, 18]: 0.35 V vs. Ag
- solubility [1, 10]: 6000 mM (≈ 841 mg/mL)
- solubility [1, 5]: 4200 mM (≈ 589 mg/mL)
- solubility ([1]; pure water, water): 1800 mM (≈ 252 mg/mL)

SMILES: COc1cc(C=O)ccc1O [vanillin, Vanillin]
- solubility [1, 3]: 4000 mM (≈ 609 mg/mL)
- solubility [1, 10]: 4000 mM (≈ 609 mg/mL)
- solubility [1, 4]: 4000 mM (≈ 609 mg/mL)
- solubility [1, 5]: 4000 mM (≈ 609 mg/mL)
- solubility [1, 6]: 4000 mM (≈ 609 mg/mL)
- solubility ([1]; TBACl-H2O, aqueous with cosolvent or surfactant or cyclodextrin, TBACl—H2O): 4000 mM (≈ 609 mg/mL)
- Solubility (in words) ([1]; water): slightly soluble
- solubility [1, 7]: < 100 mM

The next lines start with the values.

- solubility ([1]; 10 m BMImCl-H2O with 1 M HCl, aqueous with cosolvent or surfactant or cyclodextrin, 10 m BMImCl-H2O, b: with 1 M HCl): < 100 mM
- solubility [1, 3]: < 100 mM
- solubility ([1]; 10 m LiTFSI-H2O with 1 M HCl, aqueous with cosolvent or surfactant or cyclodextrin, 10 m LiTFSI-H2O, b: with 1 M HCl): 500 mM (≈ 85.1 mg/mL)
- solubility [1, 4]: 700 mM (≈ 119 mg/mL)
- solubility [1, 5]: 700 mM (≈ 119 mg/mL)
- solubility ([1]; 10 m TBACl-H2O with 1 M HCl, aqueous with cosolvent or surfactant or cyclodextrin, 10 m TBACl-H2O, b: with 1 M HCl): 100 mM (≈ 17 mg/mL)
- solubility [1, 6]: 200 mM (≈ 34 mg/mL)
- Solubility (in words) ([1]; BMImCl—H2O): limited
- Solubility (in words) ([1]; TBACl—H2O): limited
- solubility ([1]; acidic LiTFSI-H2O, aqueous with cosolvent or surfactant or cyclodextrin, acidic LiTFSI—H2O): 500 mM (≈ 85.1 mg/mL)
- Solubility (in words) ([1]; water): insoluble
- solubility ([1]; water with 1 M HCl, aqueous buffer, H2O, b: with 1 M HCl): < 100 mM
- solubility [1, 7]: < 100 mM
SMILES: COc1cc(O)cc(OC)c1O [2,6-dimethoxyhydroquinone]

- Solubility (in words) ([1]; 5 m LiTFSI—H2O): poor
- solubility [1, 3]: < 100 mM
- solubility ([1]; 10 m LiTFSI with triethanolamine, aqueous with cosolvent or surfactant or cyclodextrin, 10 m LiTFSI with 0.3 g triethanolamine per milliliter): 300 mM
- solubility [1, 4]: 500 mM
- solubility [1, 5]: 500 mM
- solubility ([1]; 10 m TBACl-H2O with triethanolamine, aqueous with cosolvent or surfactant or cyclodextrin, 10 m TBACl-H2O, c: with 0.3 g triethanolamine per mL solvent): < 100 mM
- solubility [1, 6]: < 100 mM
- Solubility (in words) ([1]; 15 m LiTFSI—H2O): soluble
- solubility ([1]; supporting electrolyte, aqueous with cosolvent or surfactant or cyclodextrin, 10 m BMImCl-H2O, c: with 0.3 g triethanolamine per mL solvent): < 100 mM
- solubility ([1]; supporting electrolyte, aqueous with cosolvent or surfactant or cyclodextrin, 10 m LiTFSI-H2O, c: with 0.3 g triethanolamine per mL solvent): 300 mM
- solubility ([1]; supporting electrolyte, aqueous with cosolvent or surfactant or cyclodextrin, H2O, c: with 0.3 g triethanolamine per mL solvent): < 100 mM
- solubility [1, 7]: < 100 mM
SMILES: CC[N+](CC)(CC)Cc1ccc2c(c1)C(=O)c1ccccc1C2=O.[Br-] [2-methanaminium-N,N,N-triethyl-9,10-anthraquinone bromide]
